These results are taken from US20240316047A1, “INHIBITORS OF RNA HELICASE DHX9 AND USES THEREOF” (ACCENT THERAPEUTICS, INC., priority 2022, published 2024).

The test deals with Human recombinant DHX9 protein (Homo sapiens (Human), UniProt Q08211). Put plainly: DHX9 ATPase assay (ADP-Glo). The format is biochemical. To be noted: for IC50: read-out: DHX9 Biochemical Inflection Point. A general note: In ADP-Glo the light output rises with the ADP produced.
Human recombinant DHX9 protein, sequence (Q08211 whole entry): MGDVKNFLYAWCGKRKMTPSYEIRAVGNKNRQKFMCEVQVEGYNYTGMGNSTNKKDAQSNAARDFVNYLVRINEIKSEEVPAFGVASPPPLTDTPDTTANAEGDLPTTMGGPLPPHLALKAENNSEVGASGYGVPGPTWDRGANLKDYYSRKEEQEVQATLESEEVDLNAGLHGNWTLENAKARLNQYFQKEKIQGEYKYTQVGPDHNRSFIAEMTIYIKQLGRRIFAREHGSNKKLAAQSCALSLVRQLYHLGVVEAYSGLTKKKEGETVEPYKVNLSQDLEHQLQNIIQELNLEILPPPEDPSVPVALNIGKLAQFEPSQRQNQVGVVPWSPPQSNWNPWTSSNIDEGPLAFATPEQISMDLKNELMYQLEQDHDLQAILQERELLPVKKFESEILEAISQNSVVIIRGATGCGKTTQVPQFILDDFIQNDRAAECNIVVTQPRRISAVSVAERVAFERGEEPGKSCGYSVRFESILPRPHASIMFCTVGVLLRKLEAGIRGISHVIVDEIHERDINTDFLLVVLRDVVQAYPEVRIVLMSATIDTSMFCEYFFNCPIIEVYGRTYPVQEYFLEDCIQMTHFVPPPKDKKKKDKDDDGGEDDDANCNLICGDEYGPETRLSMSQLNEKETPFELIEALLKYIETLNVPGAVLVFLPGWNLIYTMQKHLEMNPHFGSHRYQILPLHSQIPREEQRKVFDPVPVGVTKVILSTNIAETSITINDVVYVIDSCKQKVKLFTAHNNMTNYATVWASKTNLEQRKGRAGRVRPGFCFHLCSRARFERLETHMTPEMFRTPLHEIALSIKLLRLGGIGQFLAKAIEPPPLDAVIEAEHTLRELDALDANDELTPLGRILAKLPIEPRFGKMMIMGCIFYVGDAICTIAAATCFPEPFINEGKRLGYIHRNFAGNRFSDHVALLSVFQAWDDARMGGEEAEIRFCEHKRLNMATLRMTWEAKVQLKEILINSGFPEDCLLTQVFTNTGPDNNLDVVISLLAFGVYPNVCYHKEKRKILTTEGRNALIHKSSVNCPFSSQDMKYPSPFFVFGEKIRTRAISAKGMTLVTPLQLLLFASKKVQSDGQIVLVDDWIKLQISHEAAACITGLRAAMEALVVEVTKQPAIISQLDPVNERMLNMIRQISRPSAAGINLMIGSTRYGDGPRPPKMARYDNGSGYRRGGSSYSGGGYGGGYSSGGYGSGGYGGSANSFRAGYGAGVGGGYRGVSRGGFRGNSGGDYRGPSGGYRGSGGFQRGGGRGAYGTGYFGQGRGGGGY

`CN1CC[C@H](Oc2cnc(-c3cc(C(=O)Nc4cc(Cl)cc(NS(C)(=O)=O)c4)cn3C)c(F)c2)C1` [Example 639, N-(3-chloro-5-methanesulfonamidophenyl)-5-(3-fluoro-5-{[(3S)-1-methylpyrrolidin-3-yl]oxy}pyridin-2-yl)-1-methylpyrrole-3-carboxamide]: the “DHX9 Biochemical Max Inhibition” value came out at 59.7 and the IC50 is 7.7 nM.

`CN1CC[C@@H](Oc2cnc(-c3cc(C(=O)Nc4cc(Cl)cc(NS(C)(=O)=O)c4)cn3C)c(F)c2)C1` [Example 640]: the “DHX9 Biochemical Max Inhibition” value came to 59 and the IC50 came to 7 nM.

On to `CN1CC[C@@H](Oc2cnc(-c3cc(C(=O)Nc4cc(Cl)cc(NS(C)(=O)=O)c4)cn3CC(F)(F)F)nc2)C1` [Example 641], for which the “DHX9 Biochemical Max Inhibition” value is reported as 71 and the IC50 turned out to be 9 nM.

With `CN1CC[C@H](Oc2cnc(-c3cc(C(=O)Nc4cc(Cl)cc(NS(C)(=O)=O)c4)cn3CC(F)(F)F)nc2)C1` [Example 642], the “DHX9 Biochemical Max Inhibition” value is 67.3 and the IC50 was 19.8 nM.

As for `CS(=O)(=O)Nc1cc(Cl)cc(NC(=O)c2cc(C(=O)N3CC4(CNC4)C3)n(-c3ccccn3)c2)c1` [Example 643], the “DHX9 Biochemical Max Inhibition” value amounted to 61.4 and the IC50 stood at 40.8 nM.

For the molecule `CS(=O)(=O)Nc1cc(Cl)cc(NC(=O)c2cc(C(=O)N3CCCCC3)n(-c3ccccn3)c2)c1` [Example 644], the “DHX9 Biochemical Max Inhibition” value was 71.2 and the IC50 was 95 nM.

On to `CC(C)(C)OC(=O)N1CC(n2cc(C(=O)Nc3cc(Cl)cc(NS(C)(=O)=O)c3)cc2-c2ncc(F)cn2)C1` [Example 645], for which the “DHX9 Biochemical Max Inhibition” value is recorded as 70.8 and the IC50 stood at 366 nM.

Take `CN(C)CCOc1cnc(-c2cc(C(=O)Nc3cc(Cl)cc(NS(C)(=O)=O)c3)cn2C)c(F)c1` [Example 646]: the “DHX9 Biochemical Max Inhibition” value is given as 66.6 and the IC50 stood at 7.9 nM.

As for `Cc1sc(C(=O)Nc2cc(Cl)cc(NS(C)(=O)=O)c2)cc1-c1ccc(P(C)(C)=O)cn1` [Example 647], the “DHX9 Biochemical Max Inhibition” value amounted to 72.9.

`Cc1sc(C(=O)Nc2cc(Cl)cc(NS(C)(=O)=O)c2)cc1-c1ncc(P(C)(C)=O)cn1` [Example 648]: the “DHX9 Biochemical Max Inhibition” value turned out to be 69.1 and the IC50 worked out at 6.9 nM.

Regarding `CS(=O)(=O)Nc1cc(Cl)cc(NC(=O)c2cc(C(=O)N3CCN(CC(F)(F)F)CC3)n(-c3ccccn3)c2)c1` [Example 649], the “DHX9 Biochemical Max Inhibition” value amounted to 67.6 and the IC50 was 50.3 nM.

In the case of `CC(C)(O)c1cc(C(=O)Nc2cc(Cl)cc(NS(C)(=O)=O)c2)cn1-c1ccccn1` [Example 650], the “DHX9 Biochemical Max Inhibition” value was 80.6 and the IC50 is 52.4 nM.

For `CS(=O)(=O)Nc1cc(Cl)cc(NC(=O)c2cc(-c3ncc(OC4CN(S(C)(=O)=O)C4)cn3)n(CC(F)(F)F)c2)c1` [Example 651], the “DHX9 Biochemical Max Inhibition” value is given as 59.6 and the IC50 is 70.6 nM.

Take `CS(=O)(=O)Nc1cc(Cl)cc(NC(=O)c2cc(-c3ncc(F)cn3)n(C3CNC3)c2)c1` [Example 652]: the “DHX9 Biochemical Max Inhibition” value is listed as 68.1 and the IC50 was 343 nM.

As to `Cc1sc(C(=O)Nc2cc(Cl)cc(NS(C)(=O)=O)c2)cc1-c1ncc(C(C)(O)C2CN(C)C2)cc1F` (stereo not shown) [Example 653], the “DHX9 Biochemical Max Inhibition” value is 75.7 and the IC50 was determined as 2 nM.

As to `CS(=O)(=O)Nc1cc(Cl)cc(NC(=O)c2cc(C(=O)N3CCN(c4ccccc4)CC3)n(-c3ccccn3)c2)c1` [Example 654], the “DHX9 Biochemical Max Inhibition” value came out at 72.7 and the IC50 came out at 21.6 nM.

Consider `Cn1cc(C(=O)Nc2cc(Cl)cc(NS(C)(=O)=O)c2)cc1-c1ncccc1Oc1cccnc1` [Example 655], for which the “DHX9 Biochemical Max Inhibition” value turned out to be 67.8 and the IC50 amounted to 11.4 nM.

`Cc1cc(C(=O)Nc2cc(Cl)cc(NS(C)(=O)=O)c2)cn1-c1ncc(S(C)(=O)=O)cn1` [Example 656]: the “DHX9 Biochemical Max Inhibition” value was 71.3 and the IC50 came out at 30.7 nM.

Take `Cc1cc(C(=O)Nc2cc(Cl)cc(NS(C)(=O)=O)c2)cn1-c1ncc([S+](C)[O-])cn1` (stereo not shown) [Example 657]: the “DHX9 Biochemical Max Inhibition” value is reported as 71.8 and the IC50 stood at 14.7 nM.

With `CSc1cnc(-n2cc(C(=O)Nc3cc(Cl)cc(NS(C)(=O)=O)c3)cc2C)nc1` [Example 658], the “DHX9 Biochemical Max Inhibition” value is recorded as 73.1 and the IC50 came out at 53.9 nM.

With `Cc1cc(F)cc(C#N)c1-c1cc(C(=O)Nc2cc(Cl)cc(NS(C)(=O)=O)c2)cn1C` [Example 659], the “DHX9 Biochemical Max Inhibition” value was 50.7 and the IC50 is 68.8 nM.

`Cc1sc(C(=O)Nc2cc(Cl)cc(NS(C)(=O)=O)c2)cc1N1C(=O)N(C)C(C)(c2ccccn2)C1=O` (stereo not shown) [Example 660]: the “DHX9 Biochemical Max Inhibition” value was 67.1 and the IC50 was determined as 2120 nM.

As for `CN1CCN(c2csc(C(=O)Nc3cc(Cl)cc(NS(C)(=O)=O)c3)c2)CC1=O` [Example 661], the “DHX9 Biochemical Max Inhibition” value is 78.6 and the IC50 came to 3.2 nM.

As for `Cc1cc(C(=O)Nc2cc(Cl)cc(NS(C)(=O)=O)c2)cn1-c1ncc(OC(C)(C)C)cc1F` [Example 662], the “DHX9 Biochemical Max Inhibition” value was 66.1 and the IC50 turned out to be 68 nM.

`Cc1cc(C(=O)Nc2cc(Cl)cc(NS(C)(=O)=O)c2)cn1-c1ccc(OC(C)(C)C)cn1` [Example 663]: the “DHX9 Biochemical Max Inhibition” value came to 66.3 and the IC50 worked out at 33 nM.

As to `Cc1cc(C(=O)Nc2cc(Cl)cc(NS(C)(=O)=O)c2)cn1-c1ncc(OC(C)(C)C)cn1` [Example 664], the “DHX9 Biochemical Max Inhibition” value is recorded as 68.8 and the IC50 came out at 87.7 nM.

On to `CN1CCN(C(=O)c2cc(C(=O)Nc3cc(Cl)cc(NS(C)(=O)=O)c3)cn2-c2ccccn2)CC1` [Example 665], for which the “DHX9 Biochemical Max Inhibition” value amounted to 70.1 and the IC50 worked out at 30.9 nM.

With `Cc1cc(C(=O)Nc2cc(Cl)cc(NS(C)(=O)=O)c2)cn1-c1ncc(F)cc1-c1cncc(F)c1` [Example 666], the “DHX9 Biochemical Max Inhibition” value amounted to 78.4 and the IC50 worked out at 121 nM.

Consider `CC(C)n1cc(C(=O)Nc2cc(Cl)cc(NS(C)(=O)=O)c2)cc1-c1ncc(F)cn1` [Example 667], for which the “DHX9 Biochemical Max Inhibition” value stood at 67.1 and the IC50 turned out to be 145 nM.

As for `Cc1cc(C(=O)Nc2cc(Cl)cc(NS(C)(=O)=O)c2)cn1-c1ccc(OC2COC2)cn1` [Example 668], the “DHX9 Biochemical Max Inhibition” value stood at 82.3 and the IC50 was 7.3 nM.

`Cc1cc(C(=O)Nc2cc(Cl)cc(NS(C)(=O)=O)c2)cn1-c1ncc(OC2COC2)cn1` [Example 669]: the “DHX9 Biochemical Max Inhibition” value is on record as 80.8 and the IC50 amounted to 1.9 nM.

On to `Cc1sc(C(=O)Nc2cc(Cl)cc(NS(C)(=O)=O)c2)cc1-c1ncc(OC(C)(C)C(=O)O)cn1` [Example 670], for which the “DHX9 Biochemical Max Inhibition” value was determined as 73.4 and the IC50 came out at 6.2 nM.

As for `Cc1sc(C(=O)Nc2cc(Cl)cc(NS(C)(=O)=O)c2)cc1-c1ncc(OC(C)C(=O)O)cn1` (stereo not shown) [Example 671], the “DHX9 Biochemical Max Inhibition” value is given as 68.8 and the IC50 was found to be 6.8 nM.

For the molecule `Cc1cc(C(=O)Nc2cc(Cl)cc(NS(C)(=O)=O)c2)cn1-c1ncc(N2CC(F)(F)C2)cc1OC(C)C` [Example 672], the “DHX9 Biochemical Max Inhibition” value was found to be 65.1 and the IC50 was found to be 97.8 nM.
